Series [1] concerns peritoneal macrophages of C57bl/6j mice. As to the kind of experiment: Yeast phagocytosis assay and macrophage spreading. It is filed as cell-based, mouse. Here is the method: Next, we evaluated lead compound 9g for immunodepressant activity in parallel with the reference drug dexamethasone. Yeast phagocytosis was assessed by microscopic examination as the number of phagocytes per 100 macrophages and as the number of phagocytosed yeast cells in each phagocyte. Cell viability was assessed as lactate dehydrogenase activity in cell supernatants, which correlates with increased cell membrane permeability.
Peritoneal macrophages of C57bl/6j mice were cultured in a 24-well plate at a volume of 500 μL/well (1 × 10^5 cells/mL) for 24 h. Test compounds or DMSO were added to wells in triplicate followed by 50 μL of 1% yeast suspension, and the plates were incubated for 40 min. After 24 or 72 h, the medium was removed. The cells were fixed with May–Grunwald methanol dye and stained with Azur-Eosin in Romanovsky’s modification for 45 min at room temperature, washed, air-dried, and analyzed using a microscope Mikmed-6 (Russia), equipped with a digital camera. The study was performed in three technical replicates and two series; 100 macrophages were processed in each sample to count the captured yeast cells. Macrophage spreading was assessed as a number of pseudopodia.

The test system of a further series is C57BL/6J mice. Nature of the series: LPS-induced acute lung injury in mice. In kind it is in vivo, mouse. The procedure:
The randomization of C57bl/6j mice into experimental and control groups was based on body weight and behavioral activity assessed in an open field test 24 h before the start of the experiment. The next day, mice were treated with vehicle or test compounds 1 h before intratracheal instillation of LPS solution in sterile saline.
The randomization of C57BL/6J mice was performed by body weight and motor activity in an open field test. Dexamethasone (5 mg/kg) and 9g (30 mg/kg) were administered intraperitoneally in 10 mL/kg sterile saline. The control animals received an equal volume of the vehicle. After 1 h, the mice were anesthetized with isoflurane inhalation until their breathing rate was decreased. The mice were suspended by the front incisors on an inclined surgical table, the tongue was pulled out with narrow curved tweezers, and 1 mg/mL of E. coli O127:B8 LPS (Sigma-Aldrich, St. Louis, MO, USA) in 1 mL/kg sterile saline was injected into the back of the oropharynx. Intact control animals received an equal volume of sterile saline similarly.
The animals were placed in the center of a round open field with an arena of 44 cm diameter and 32 cm wall height under 300 lux lighting. During 5 min of observation, horizontal motor activity, vertical motor activity, time spent in the central part, the number of exits to the central part, and exploratory activity parameters were recorded. Body temperature was determined rectally.
The mice were anesthetized with 500 mg/kg chloral hydrate (Sigma-Aldrich, St. Louis, MO, USA) intraperitoneally 24 h after LPS administration. Blood was taken by intracardiac puncture in test tubes with heparin. The blood samples were centrifuged at 1000 g and 4 °C for 15 min on a 2–16PK centrifuge (Sigma, Germany), and plasma was separated and stored at −80 °C until the assay. Thoracotomy was performed, the ligature was applied to the left bronchus and the trachea was cannulated with a 20 G needle. The right lung was washed twice with 0.7 mL of warm sterile saline. After combining aliquots, the bronchoalveolar lavage (BAL) was centrifuged at 800 g and 4 °C for 10 min. The supernatant was separated and stored at −80 °C until the assay. The residual cell pellet was resuspended in 50 μL of PBS for further study. The left lung was washed in saline and placed in 10% buffered formalin for morphological evaluation.
The total number of leukocytes in heparinized blood was determined after staining with methylene blue in Goryaev’s counting chamber at ×100 magnification. Smears of blood and BAL cell pellets were air-dried, fixed according to May–Grunwald for 3 min, and stained according to Romanowsky–Giemsa. After 30 min, the slides were washed, air-dried, and examined with immersion objective (×1000 total magnification). On each slide, a total of at least 100 cells were calculated.
The concentration of total protein in BAL supernatants was determined spectrophotometrically with the pyrogallol red method, and the protein in the blood plasma was determined with the biuret method using commercial kits (Vital, Saint Petersburg, Russia) and bovine serum albumin as the standard. The lung permeability index was calculated as the protein concentration in the BAL to plasma ratio.
Morphological markers of inflammation in lung tissue were assessed in a semi-quantitative way on paraffin sections stained with hematoxylin and eosin. The sections were examined under a light microscope (Zeiss, Germany) by a double-blind method. The score of inflammation was determined as follows: 0—the presence of single inflammatory cells; 1—weak inflammation, inflammatory cells infiltrate no more than 10% of the lung tissue, including interalveolar cell partitions; 2—moderate inflammation, inflammatory cells infiltrate no more than 50% of the structures of the lung, but the interstitial tissue is identified; 3—severe inflammation, inflammatory cells densely infiltrate more than 50% of the lung tissue and airways.

In series [2] the test system is LPS-stimulated peritoneal macrophages of C57bl/6j mice. As to the kind of experiment: Inhibition of LPS-induced NO synthesis (nitrite accumulation, Griess reagent) in peritoneal macrophages. In kind it is cell-based, mouse. The following applies: 100 μM; m ± SD. Here is the method: (§1) Peritoneal macrophages (PM) were isolated from the peritoneal exudate of 30 male C57bl/6j mice. To accumulate PM, 1 mL of 3% peptone solution was injected intraperitoneally. After 3 days, the mice were euthanized by cervical dislocation. Cells of peritoneal exudate were obtained by aseptic washing of the abdominal cavity with 5 mL of sterile Hanks’s solution (+4–6 °C) without calcium and magnesium ions. The total number and viability of cells were assessed in a Goryaev counting chamber (Russia) with a 0.4% trypan blue staining (Sigma-Aldrich, St. Louis, MO, USA). The cell concentration was adjusted to 1.0 × 10^6 cells/mL in DMEM (Gibco) supplemented with 2 mM L-glutamine (Gibco, Waltham, MA, USA), 10% heat-inactivated fetal bovine serum (BioClot, Bavaria, Germany), 100 U/mL penicillin, and […] streptomycin (Gibco) and plated 200 μL/well in 96-well transparent plates (SPL Life Sciences Co., Ltd., Pocheon-si, Korea). After 2 h at 37 °C in a humidified atmosphere with 5% CO2, the wells were washed to remove non-adherent cells. After 24 h of incubation, 20 μL of the supernatants were substituted with 20 μL of solutions of test compounds, followed by E. coli O127:B8 LPS (100 ng/mL final concentration) after 30 min. The experiments were run in 3 independent replicates.
The accumulation of the nitrite anion (a stable end product of NO decomposition produced by iNOS) in supernatants was determined using a standard Griess reagent. Briefly, 50 μL of supernatants were collected 22 h after incubation of PM, and the test and control compounds were mixed with 50 μL of 1% […] in 2.5% H3PO4 and 50 μL of 0.1% N-(1-naphthyl) ethylenediamine in 2.5% H3PO4. After incubation at 23 °C for 10 min in an orbital shaker, the optical density was determined at a wavelength of 550 nm with a microplate reader Infinite M200 PRO (Tecan, Grödig, Austria).
In general terms: The Griess reaction detects nitrite, a stable product of nitric oxide.

The test system is the same in series [3]. As to the kind of experiment: Cell viability of LPS-stimulated macrophages, MTT test. In kind it is cell-based. Conditions: male, C57bl/6j, mouse, 24 h, 100 μM. Here is the method:
as §1
The activity of lactate dehydrogenase (LDH) in a cell culture medium served as a marker of membrane permeability and cell death. Aliquotes of supernatants were taken after 24 h of inoculation with test compounds, mixed with 250 μL of […] NADH solution in 54 mM phosphate-buffered saline (pH 7.5). Then, 25 μL of a 6.48 mM pyruvate solution was added to the mixture. The optical density was followed at a wavelength of 340 nm for 20 min. The MTT-test was performed 24 h after incubations of cells with tested compounds. Briefly, 20 μL of MTT solution was added to each well, incubated at 37 °C in a humidified atmosphere containing 5% CO2 for 4 h. The culture medium was removed, the cells were lysed, and formazan crystals were dissolved in 150 μL DMSO. The plates were shaken at room temperature for 10 min, and the optical density was measured in a microplate reader Infinite M200 PRO (Tecan, Grödig, Austria) at a wavelength of 565 nm.

Setting [4] is: 24 h after LPS, dexamethasone 5 mg/kg, 9g 30 mg/kg i.p.

As to `C[C@@H]1C[C@H]2[C@@H]3CCC4=CC(=O)C=C[C@]4(C)[C@@]3(F)[C@@H](O)C[C@]2(C)[C@@]1(O)C(=O)CO` [Dexamethasone, reference compound], the Suppression of phagocytosis entry in series [1] (after 24-h of incubation, data not shown) is “significantly suppressed phagocytosis”. The “Decrease of the mean number of phagocytosed yeast cells” value in series [1] (after 72 h of incubation) worked out at 59%. Also, in the series with C57BL/6J mice (24 h after LPS), the Blood leukocyte subpopulations result was “normalized leukocyte subpopulations to the values of intact animals” and the “CD68+ cells in lung tissue, immunostaining” value is reported as “rarely detected”. Besides, the “LPS-induced lung lesions, histologic scoring (hemorrhage and neutrophil infiltration)” value in the series on C57BL/6J mice (24 h after LPS, H&E, semi-quantitative) is given as “significantly ameliorated”. In addition, in the series on C57BL/6J mice (setting [4]), the “Blood plasma IL-6 level” value is given as “normalized the blood plasma IL-6 level” and the “Permeability of pulmonary vessels (lung permeability index)” value was “prevent the increase in permeability of pulmonary vessels”. The “Horizontal motor activity, open field test” value in the series with C57BL/6J mice (24 h after LPS, dexamethasone 5 mg/kg, 9g 30 mg/kg i.p. 1 h before LPS) is “significant improvement”. The “Segmented neutrophils count in BAL (in words)” value in the series with C57BL/6J mice (24 h after LPS, monocytes in BAL increased) is listed as “significantly decreased the segmented neutrophils count”. The “Spleen mass and lymphocyte content (markers of immunodepression)” value in the series on C57BL/6J mice (LPS-treated mice, dexamethasone 5 mg/kg, 9g 30 mg/kg i.p.) is given as “significantly reduced”. The LPS-induced hypothermia result in the series with C57BL/6J mice (body temperature determined rectally) was “attenuated LPS-induced hypothermia”. For the same molecule, the “Segmented neutrophils, share of BAL cells” value in the series with C57BL/6J mice (bronchoalveolar lavage 24 h after LPS, dexamethasone 5 mg/kg, 9g 30 mg/kg i.p.) is on record as 22.5%. Further, the “Number of center entries and time in the center, open field test” value with C57BL/6J mice (dexamethasone 5 mg/kg, 9g 30 mg/kg i.p.) is “restored the number of center entries and time in the center to intact levels”. For the same molecule, the “Inhibition of NO Synthesis vs. LPS Control” value in series [2] was 90.91 ± 5.53 %. Also, the “Cell Viability vs. LPS Control, MTT Test” value in series [3] was 104.21 ± 2.18%.
